Experiments:
[1] = tested on: Methicillin Resistant Staphylococcus aureus strain USA 200; assay: Minimum inhibitory concentration (MIC), CLSI broth micro-dilution, S. aureus; format: cell-based; settings: Staphylococcus aureus, MRSA / USA200, MRSA USA 200, cation adjusted Mueller Hinton Broth + 0.002% Tween-80, 35° C., 22 hours
Outline: (§1)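 Antibacterial potency is measured as MIC by the CLSI broth dilution method. Bacteria at OD600 0.0005 in Tween-80-supplemented cation-adjusted Mueller Hinton broth face ten twofold compound dilutions for 22 h at 35° C.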

[2] = tested on: Escherichia coli ATCC 25922; assay: Minimum inhibitory concentration (MIC), CLSI broth micro-dilution, E. coli; format: cell-based; settings: Escherichia coli, ATCC25922, 22 h
Outline: as §1

[3] = Table 8, cation adjusted Mueller Hinton Broth + 0.002% Tween-80, 35° C.
[4] = Table 6, cation adjusted Mueller Hinton Broth + 0.002% Tween-80, 35° C.

| MIC ([1]; Table 8) [µM] | MIC [2, 3] [µM] | MIC ([1]; Table 6) [µM] | MIC [2, 4] [µM] | Structure (SMILES) |
| --- | --- | --- | --- | --- |
| 0.047 | 0.094 | – | – | CCCCCCOc1ccc(-c2nc(C)c(C(=O)N[C@@H](CCN)C(=O)N(C)[C@@H]3C(=O)N[C@@H](C)C(=O)N[C@H](C(=O)O)Cc4ccc(OCCN)c(c4)-c4cc3ccc4OCCN)c(C)n2)cc1 (racemic) [Compound 641, rac-(8S,11S,14S)-3,18-bis(2-aminoethoxy)-11-methyl-14-[methyl-[rac-(2S)-4-amino-2-[[2-(4-hexoxyphenyl)-4,6-dimethyl-pyrimidine-5-carbonyl]amino]butanoyl]amino]-10,13-dioxo-9,12-diazatricyclo [13.3.1.12,6]icosa-1(18),2(20),3,5,15(19), 16-hexaene-8-carboxylic acid] |
| 1.1 | 2.3 | – | – | Cc1nc(-c2ccc(OC(C)C)cc2)nc(C)c1C(=O)N[C@@H](CCN)C(=O)N(C)[C@@H]1C(=O)N[C@@H](C)C(=O)N[C@H](C(=O)O)Cc2ccc(O)c(c2)-c2cc1ccc2OCCN (racemic) [Compound 643, rac-(8S,11S,14S)-18-(2-aminoethoxy)-3-hydroxy-11-methyl-14-[methyl-[rac-(2S)-4-amino-2-[[2-(4-isopropoxyphenyl)-4,6-dimethyl-pyrimidine-5-carbonyl]amino]butanoyl]amino]-10,13-dioxo-9,12-diazatricyclo [13.3.1.12,6]icosa-1(18),2(20),3,5,15(19), 16-hexaene-8-carboxylic acid] |
| 0.52 | 0.4 | – | – | Cc1nc(-c2ccc(C(C)(C)C)cc2)nc(C)c1C(=O)N[C@@H](CCN)C(=O)N(C)[C@@H]1C(=O)N[C@@H](C)C(=O)N[C@H](C(=O)O)Cc2ccc(OCCN)c(c2)-c2cc1ccc2OCCN (racemic) [Compound 645, rac-(8S,11S,14S)-3,18-bis(2-aminoethoxy)-11-methyl-14-[methyl-[rac-(2S)-4-amino-2-[[2-(4-tert-butylphenyl)-4,6-dimethyl-pyrimidine-5-carbonyl]amino]butanoyl]amino]-10,13-dioxo-9,12-diazatricyclo [13.3.1.12,6]icosa-1(18),2(20),3,5,15(19), 16-hexaene-8-carboxylic acid] |
| – | – | 0.016 | 0.75 | Cc1nc([C@H]2CC[C@@H](C(C)(C)C)CC2)nc(C)c1C(=O)N[C@@H](CCN)C(=O)N(C)[C@@H]1C(=O)N[C@@H](C)C(=O)N[C@H](C(=O)NCC#N)Cc2ccc(OCCN)c(c2)-c2cc1ccc2OCCN [Compound 297, rac-(8S,11S,14S)-3,18-bis(2-aminoethoxy)-N-(cyanomethyl)-11-methyl-14-[methyl-[rac-(2S)-4-amino-2-[[2-(4-tert-butylcyclohexyl)-4,6-dimethyl-pyrimidine-5-carbonyl]amino]butanoyl]amino]-10,13-dioxo-9,12-diazatricyclo[13.3.1.12,6]icosa-1(18),2(20),3,5,15(19),16-hexaene-8-carboxamide] |

The remaining lines, values behind:

| Structure (SMILES) | MIC ([1]; Table 8) [µM] | MIC [2, 3] [µM] | MIC ([1]; Table 6) [µM] | MIC [2, 4] [µM] |
| --- | --- | --- | --- | --- |
| CCCCCOc1ccc(-c2nc(C)c(C(=O)N[C@@H](CCN)C(=O)N(C)[C@@H]3C(=O)N[C@@H](C)C(=O)N[C@H](C(=O)O)Cc4ccc(OCCN)c(c4)-c4cc3ccc4O)c(C)n2)cc1 (racemic) [Compound 642, rac-(8S,11S,14S)-3-(2-aminoethoxy)-18-hydroxy-11-methyl-14-[methyl-[rac-(2S)-4-amino-2-[[4,6-dimethyl-2-(4-pentoxyphenyl)pyrimidine-5-carbonyl]amino]butanoyl]amino]-10,13-dioxo-9,12-diazatricyclo [13.3.1.12,6]icosa-1(18),2(20),3,5,15(19), 16-hexaene-8-carboxylic acid] | 0.21 | 0.23 | – | – |
| Cc1cc(-c2ccc(C(C)(C)C)cc2)nc(C)c1C(=O)N[C@@H](CCN)C(=O)N(C)[C@@H]1C(=O)N[C@@H](C)C(=O)N[C@H](C(=O)O)Cc2ccc(O)c(c2)-c2cc1ccc2OCCN (racemic) [Compound 644, rac-(8S,11S,14S)-18-(2-aminoethoxy)-3-hydroxy-11-methyl-14-[methyl-[rac-(2S)-4-amino-2-[[6-(4-tert-butylphenyl)-2,4-dimethyl-pyridine-3-carbonyl]amino]butanoyl]amino]-10,13-dioxo-9,12-diazatricyclo [13.3.1.12,6]icosa-1(18),2(20),3,5,15(19), 16-hexaene-8-carboxylic acid] | 1.2 | 0.58 | – | – |
| Cc1nc(-c2ccc(C(C)(C)C)cc2)nc(C)c1C(=O)N[C@@H](CCN)C(=O)N(C)[C@@H]1C(=O)N[C@@H](C)C(=O)N[C@H](C(=O)O)Cc2ccc(O)c(c2)-c2cc1ccc2OCCN (racemic) [Compound 646, rac-(8S,11S,14S)-18-(2-aminoethoxy)-3-hydroxy-11-methyl-14-[methyl-[rac-(2S)-4-amino-2-[[2-(4-tert-butylphenyl)-4,6-dimethyl-pyrimidine-5-carbonyl]amino]butanoyl]amino]-10,13-dioxo-9,12-diazatricyclo [13.3.1.12,6]icosa-1(18),2(20),3,5,15(19), 16-hexaene-8-carboxylic acid] | 1.1 | 0.37 | – | – |
| Cc1nc(-c2ccc3c(c2)CCC3(C)C)nc(C)c1C(=O)N[C@@H](CCN)C(=O)N(C)[C@@H]1C(=O)N[C@@H](C)C(=O)N[C@H](C(=O)O)Cc2ccc(OCCN)c(c2)-c2cc1ccc2OCCN (racemic) [Compound 647, rac-(8S,11S,14S)-3,18-bis(2-aminoethoxy)-11-methyl-14-[methyl-[rac-(2S)-4-amino-2-[[2-(1,1-dimethylindan-5-yl)-4,6-dimethyl-pyrimidine-5-carbonyl]amino]butanoyl]amino]-10,13-dioxo-9,12-diazatricyclo [13.3.1.12,6]icosa-1(18),2(20),3,5,15(19), 16-hexaene-8-carboxylic acid] | 0.19 | 0.25 | – | – |
| CCCCCOc1ccc(-c2nc(C)c(C(=O)N[C@@H](CCN)C(=O)N(C)[C@@H]3C(=O)N[C@@H](C)C(=O)N[C@H](C(=O)O)Cc4ccc(O)c(c4)-c4cc3ccc4OCCN)c(C)n2)cc1 (racemic) [Compound 648, rac-(8S,11S,14S)-18-(2-aminoethoxy)-3-hydroxy-11-methyl-14-[methyl-[rac-(2S)-4-amino-2-[[4,6-dimethyl-2-(4-pentoxyphenyl)pyrimidine-5-carbonyl]amino]butanoyl]amino]-10,13-dioxo-9,12-diazatricyclo [13.3.1.12,6]icosa-1(18),2(20),3,5,15(19), 16-hexaene-8-carboxylic acid] | 0.28 | 0.1 | – | – |
| Cc1nc([C@H]2CC[C@H](C(C)(C)C)CC2)nc(C)c1C(=O)N[C@@H](CCN)C(=O)N(C)[C@@H]1C(=O)N[C@@H](C)C(=O)N[C@H](C(=O)NCC#N)Cc2ccc(OCCN)c(c2)-c2cc1ccc2OCCN [Compound 296, rac-(8S,11S,14S)-3,18-bis(2-aminoethoxy)-N-(cyanomethyl)-11-methyl-14-[methyl-[rac-(2S)-4-amino-2-[[2-(4-tert-butylcyclohexyl)-4,6-dimethyl-pyrimidine-5-carbonyl]amino]butanoyl]amino]-10,13-dioxo-9,12-diazatricyclo[13.3.1.12,6]icosa-1(18),2(20),3,5,15(19),16-hexaene-8-carboxamide] | – | – | 0.016 | 0.38 |
